Source: US20170349593A1, “BTK INHIBITORS” (MERCK SHARP & DOHME CORP., priority 2014, published 2017)
pIC50: −log10 of the molar value.

Columns and labels:
[1] = target: T1, BTK enzyme (recombinant full-length BTK, hBTK) (Homo sapiens, UniProt Q06187); experiment: Btk enzyme activity assay (LANCE TR-FRET); format: biochemical; conditions: 50 pM hBTK, 25 μM ATP, 60 minute compound and enzyme incubation, concentration range 1 μM to 0.017 nM, read-out: BTK binding IC50
T1 construct: recombinant protein from baculovirus-transfected S 19 cells: full-length BTK, 6 HIS-tag cleaved; 6 HIS-tag (cleaved yes); made in house
T1 sequence (Q06187 whole entry): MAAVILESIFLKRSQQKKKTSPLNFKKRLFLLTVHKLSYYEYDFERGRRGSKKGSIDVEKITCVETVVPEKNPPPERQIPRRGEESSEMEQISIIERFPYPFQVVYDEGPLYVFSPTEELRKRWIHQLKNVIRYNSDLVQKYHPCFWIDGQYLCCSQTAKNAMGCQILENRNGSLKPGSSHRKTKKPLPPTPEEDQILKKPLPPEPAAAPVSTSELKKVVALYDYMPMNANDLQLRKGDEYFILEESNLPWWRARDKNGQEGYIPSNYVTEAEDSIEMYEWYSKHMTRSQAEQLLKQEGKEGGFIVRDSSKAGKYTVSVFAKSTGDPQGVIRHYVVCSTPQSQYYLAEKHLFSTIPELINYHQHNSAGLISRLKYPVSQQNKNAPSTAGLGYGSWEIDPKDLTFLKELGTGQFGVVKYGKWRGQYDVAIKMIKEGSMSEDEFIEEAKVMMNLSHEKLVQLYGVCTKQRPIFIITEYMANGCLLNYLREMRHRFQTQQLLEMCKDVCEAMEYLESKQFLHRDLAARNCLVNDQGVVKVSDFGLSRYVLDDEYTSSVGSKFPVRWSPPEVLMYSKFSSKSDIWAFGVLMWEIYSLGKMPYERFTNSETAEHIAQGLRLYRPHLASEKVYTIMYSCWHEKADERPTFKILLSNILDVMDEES

[2] = tested on: adenosine uptake into HeLa cells; experiment: [3H]Adenosine uptake assay; format: cell-based; conditions: Homo sapiens; accumulation of [3H]adenosine into HeLa cells; concentration range 10 μM to 0.032 nM; read-out: ADU inhibition IC50
Protocol: Compounds are also screened in an adenosine uptake functional cellular assay using the protocol described below:
Adenosine uptake activity was determined by monitoring the accumulation of tritiated adenosine into HeLa cells (ATCC catalog #CCL-2) using a PMT-based radiometric detection instrument. In this assay, the potency (IC50) of each compound was determined from a ten point (1:3 serial dilution; final compound concentration range in assay from 10 μM to 0.032 nM) titration curve using the following outlined procedure. To each well of a 96-well CytoStar-T scintillating microplate (Perkin Elmer Catalog #RPNQ0163), 25 000 HeLa cells in 100 μL of growth medium comprising: Minimum Essential Media (Life Technologies Catalog #11095-080)+10% (v/v) foetal bovine serum (FBS; Sigma Aldrich Catalog #F2442) was added. These cells were incubated overnight at 37° C. in a humidified atmosphere with 5% (v/v) CO2. After this time the growth medium was removed and replaced with 40 μL assay medium comprising: Hanks balanced salts solution (HBSS; Thermo Fisher Catalog # SH30268.01)+5% (v/v) FBS. Compound stock solutions in DMSO were diluted in assay medium to 2.5× final compound concentration maintaining a constant DMSO concentration of 0.25% (v/v). 40 μL of compound in assay medium was dispensed into individual wells of the Cytostar-T plates and the plates were incubated for 30 minutes under ambient laboratory conditions. Following this incubation, 20 μL of 500 nM [^3H] adenosine (American Radiolabeled Chemicals Inc. Catalog #ART0287) in assay medium was added and incubated for a further 60 minutes under ambient laboratory conditions. The amount of radiolabel accumulation was then determined using a Perkin Elmer Topcount NXT microplate reader. In brief, HeLa cells adhere to the bottom of the Cytostar-T plate, uptake of [^3H]adenosine into these cells brings the radiolabel into sufficient proximity to excite the scintillant in the base of the plates. These events are captured by single PMT, time-resolved coincidence counting. IC50 values were determined by 4 parameter robust fit of counts per second values vs. (Log10)) compound concentrations.

pIC50 [1] | pIC50 [2] | Structure (SMILES)
8.38 | 5.49 | COc1cc(C(=O)Nc2cc(C(F)(F)F)ccn2)ccc1-c1nc([C@H]2CN(C(=O)C(C)C)[C@@H](C)CO2)n2c(Cl)cnc(N)c12 [Example 15, 4-{8-amino-5-chloro-3-[(2R,5S)-5-methyl-4-(2-methylpropanoyl)morpholin-2-yl]imidazo[1,5-a]pyrazin-1-yl}-3-methoxy-N-[4-(trifluoromethyl)pyridin-2-yl]benzamide]
8.90 | 5.55 | CCC(=O)N1C[C@H](c2nc(-c3ccc(C(=O)Nc4cc(C(F)(F)F)ccn4)cc3OC)c3c(N)ncc(Cl)n23)OC[C@@H]1C [Example 16, 4-{8-amino-5-chloro-3-[(2R,5S)-5-methyl-4-propanoylmorpholin-2-yl]imidazo[1,5-a]pyrazin-1-yl}-3-methoxy-N-[4-(trifluoromethyl)pyridin-2-yl]benzamide]
8.64 | 5.79 | COc1cc(C(=O)Nc2cc(C(F)(F)F)ccn2)ccc1-c1nc([C@H]2CN(C(C)=O)[C@@H](C)CO2)n2c(Cl)cnc(N)c12 [Example 17, 4-{3-[(2R,5S)-4-acetyl-5-methylmorpholin-2-yl]-8-amino-5-chloroimidazo[1,5-a]pyrazin-1-yl}-3-methoxy-N-[4-(trifluoromethyl)pyridin-2-yl]benzamide]
8.55 | 5.49 | COc1cc(C(=O)Nc2cc(C(F)(F)F)ccn2)ccc1-c1nc([C@H]2CN(C(=O)C3(C)CC3)[C@@H](C)CO2)n2c(Cl)cnc(N)c12 [Example 18, 4-(8-amino-5-chloro-3-{(2R,5S)-5-methyl-4-[(1-methylcyclopropyl)carbonyl]morpholin-2-yl}imidazo[1,5-a]pyrazin-1-yl)-3-methoxy-N-[4-(trifluoromethyl)pyridin-2-yl]benzamide]
8.91 | ≤ 5.00 | CCOc1cc(C(=O)Nc2cc(C(F)(F)F)ccn2)ccc1-c1nc([C@H]2CN(C(=O)CC)[C@@H](C)CO2)n2c(Cl)cnc(N)c12 [Example 19, 4-{8-amino-5-chloro-3-[(2R,5S)-5-methyl-4-propanoylmorpholin-2-yl]imidazo[1,5-a]pyrazin-1-yl}-3-ethoxy-N-[4-(trifluoromethyl)pyridin-2-yl]benzamide]
8.87 | 5.41 | CCOc1cc(C(=O)Nc2cc(C(F)(F)F)ccn2)ccc1-c1nc([C@H]2CN(C(C)=O)[C@@H](C)CO2)n2c(Cl)cnc(N)c12 [Example 20, 4-{3-[(2R,5S)-4-acetyl-5-methylmorpholin-2-yl]-8-amino-5-chloroimidazo[1,5-a]pyrazin-1-yl}-3-ethoxy-N-[4-(trifluoromethyl)pyridin-2-yl]benzamide]
8.85 | 5.14 | CCOc1cc(C(=O)Nc2cc(C(F)(F)F)ccn2)ccc1-c1nc([C@H]2CN(C(=O)[C@H](C)OC)[C@@H](C)CO2)n2c(Cl)cnc(N)c12 [Example 21, 4-(8-amino-5-chloro-3-{(2R,5S)-4-[(2S)-2-methoxypropanoyl]-5-methylmorpholin-2-yl}imidazo[1,5-a]pyrazin-1-yl)-3-ethoxy-N-[4-(trifluoromethyl)pyridin-2-yl]benzamide]
8.92 | 5.34 | CCOc1cc(C(=O)Nc2cc(C(F)(F)F)ccn2)ccc1-c1nc([C@H]2CN(C(=O)[C@H](C)O)[C@@H](C)CO2)n2c(Cl)cnc(N)c12 [Example 22, 4-(8-amino-5-chloro-3-{(2R,5S)-4-[(2S)-2-hydroxypropanoyl]-5-methylmorpholin-2-yl}imidazo[1,5-a]pyrazin-1-yl)-3-ethoxy-N-[4-(trifluoromethyl)pyridin-2-yl]benzamide]
8.52 | 5.92 | CCOc1cc(C(=O)Nc2cc(C(F)(F)F)ccn2)ccc1-c1nc([C@H]2CN(Cc3cnn(C)c3)[C@@H](C)CO2)n2c(Cl)cnc(N)c12 [Example 23, 4-(8-amino-5-chloro-3-{(2R,5S)-5-methyl-4-[(1-methyl-1H-pyrazol-4-yl)methyl]morpholin-2-yl}imidazo[1,5-a]pyrazin-1-yl)-3-ethoxy-N-[4-(trifluoromethyl)pyridin-2-yl]benzamide]
8.81 | 5.63 | CCOc1cc(C(=O)Nc2cc(C(F)(F)F)ccn2)ccc1-c1nc([C@H]2CN(CC)[C@@H](C)CO2)n2c(Cl)cnc(N)c12 [Example 24, 4-{8-amino-5-chloro-3-[(2R,5S)-4-ethyl-5-methylmorpholin-2-yl]imidazo[1,5-a]pyrazin-1-yl}-3-ethoxy-N-[4-(trifluoromethyl)pyridin-2-yl]benzamide]
8.71 | 6.03 | COc1cc(C(=O)Nc2cc(C(F)(F)F)ccn2)ccc1-c1nc([C@H]2CN(Cc3cnn(C)c3)[C@@H](C)CO2)n2c(Cl)cnc(N)c12 [Example 25, 4-(8-amino-5-chloro-3-{(2R,5S)-5-methyl-4-[(1-methyl-1H-pyrazol-4-yl)methyl]morpholin-2-yl}imidazo[1,5-a]pyrazin-1-yl)-3-methoxy-N-[4-(trifluoromethyl)pyridin-2-yl]benzamide]
8.44 | 5.99 | CCN1C[C@H](c2nc(-c3ccc(C(=O)Nc4cc(C(F)(F)F)ccn4)cc3OC)c3c(N)ncc(Cl)n23)OC[C@@H]1C [Example 26, 4-{8-amino-5-chloro-3-[(2R,5S)-4-ethyl-5-methylmorpholin-2-yl]imidazo[1,5-a]pyrazin-1-yl}-3-methoxy-N-[4-(trifluoromethyl)pyridin-2-yl]benzamide]
8.65 | 5.72 | CCOc1cc(C(=O)Nc2cc(C(F)(F)F)ccn2)ccc1-c1nc([C@H]2CN(C3CCOCC3)[C@@H](C)CO2)n2c(Cl)cnc(N)c12 [Example 27, 4-{8-amino-5-chloro-3-[(2R,5S)-5-methyl-4-(tetrahydro-2H-pyran-4-yl)morpholin-2-yl]imidazo[1,5-a]pyrazin-1-yl}-3-ethoxy-N-[4-(trifluoromethyl)pyridin-2-yl]benzamide]
8.12 | ≤ 5.00 | COCCC(=O)N1CC(N2C[C@H](c3nc(-c4ccc(C(=O)Nc5cc(C(F)(F)F)ccn5)cc4OC)c4c(N)nccn34)OC[C@@H]2C)C1 [Example 28, 4-(8-amino-3-{(2R,5S)-4-[1-(3-methoxypropanoyl)azetidin-3-yl]-5-methylmorpholin-2-yl}imidazo[1,5-a]pyrazin-1-yl)-3-methoxy-N-[4-(trifluoromethyl)pyridin-2-yl]benzamide]
8.46 | 5.41 | COc1cc(C(=O)Nc2cc(C(F)(F)F)ccn2)ccc1-c1nc([C@H]2CN(C3CN(C(=O)C4CC4)C3)[C@@H](C)CO2)n2ccnc(N)c12 [Example 29, 4-(8-amino-3-{(2R,5S)-4-[1-(cyclopropylcarbonyl)azetidin-3-yl]-5-methylmorpholin-2-yl}imidazo[1,5-a]pyrazin-1-yl)-3-methoxy-N-[4-(trifluoromethyl)pyridin-2-yl]benzamide]
7.97 | 5.99 | COc1cc(C(=O)Nc2cc(C(F)(F)F)ccn2)ccc1-c1nc([C@H]2CN(C3CN(Cc4c(F)cccc4F)C3)[C@@H](C)CO2)n2ccnc(N)c12 [Example 30, 4-(8-amino-3-{(2R,5S)-4-[1-(2,6-difluorobenzyl)azetidin-3-yl]-5-methylmorpholin-2-yl}imidazo[1,5-a]pyrazin-1-yl)-3-methoxy-N-[4-(trifluoromethyl)pyridin-2-yl]benzamide]
8.35 | 5.98 | COc1cc(C(=O)Nc2cc(C(F)(F)F)ccn2)ccc1-c1nc([C@H]2CN(C3CN(Cc4ccc(F)cc4)C3)[C@@H](C)CO2)n2ccnc(N)c12 [Example 31, 4-(8-amino-3-{(2R,5S)-4-[1-(4-fluorobenzyl)azetidin-3-yl]-5-methylmorpholin-2-yl}imidazo[1,5-a]pyrazin-1-yl)-3-methoxy-N-[4-(trifluoromethyl)pyridin-2-yl]benzamide]
8.19 | 5.97 | COc1cc(C(=O)Nc2cc(C(F)(F)F)ccn2)ccc1-c1nc([C@H]2CN(C3CN(Cc4ccccc4F)C3)[C@@H](C)CO2)n2ccnc(N)c12 [Example 32, 4-(8-amino-3-{(2R,5S)-4-[1-(2-fluorobenzyl)azetidin-3-yl]-5-methylmorpholin-2-yl}imidazo[1,5-a]pyrazin-1-yl)-3-methoxy-N-[4-(trifluoromethyl)pyridin-2-yl]benzamide]
8.69 | ≤ 5.00 | COCCC(=O)N1CC(C(=O)N2C[C@H](c3nc(-c4ccc(C(=O)Nc5cc(C(F)(F)F)ccn5)cc4OC)c4c(N)nccn34)OC[C@@H]2C)C1 [Example 33, 4-{8-amino-3-[(2R,5S)-4-{[1-(3-methoxypropanoyl)azetidin-3-yl]carbonyl}-5-methylmorpholin-2-yl]imidazo[1,5-a]pyrazin-1-yl}-3-methoxy-N-[4-(trifluoromethyl)pyridin-2-yl]benzamide]
